# Literature values in US20060148833A1, “Use of chymase inhibitors for the prevention and/or treatment of arterio-venous graft failure” (priority 2002, published 2006).
# How the values were obtained:
# dog carotid artery = dog carotid artery balloon injury model
# vein graft = conditions: dog model of vein graft injury
# [1] = system: balloon-injured dog coronary arteries; conditions: by suppression of vascular chymase levels
# [2] = system: restenosis following PTCA; conditions: oral administration over three months, clinical trials
SMILES,intimal hyperplasia (dog carotid artery),vascular proliferation and subsequent neointima formation (vein graft),neointima formation [1],rate of restenosis following PTCA [2]
"O=CNc1cnc(-c2ccccc2)n(CC(=O)NC(Cc2ccccc2)C(=O)C(=O)CCCOc2ccccn2)c1=O (stereo not shown) [NK3201, 2-(5-formylamino-6-oxo-3-phenyl-1,6,-dihydropyrmidine-1-yl)-N-{2,3-dioxo-6-(2-pyridyloxy)-1-phenylmethyl}hexyl acetamide]",inhibit intimal hyperplasia,inhibit vascular proliferation and subsequent neointima formation,,
"COc1ccc(C=CC(=O)Nc2ccccc2C(=O)O)cc1OC [Tranilast, N-(3,4-dimethoxycinnamoyl) anthranilic acid]",,,suppresses neointima formation,markedly reduce the rate of restenosis
